The text below walks through data of Sander's compilation of Henry's law constants (doi:10.1002/etc.5620090606).

This series in a line: Henry solubility constant Hcp at 298.15 K (mol/(m3 Pa)). As to conditions: reference: Fendinger and Glotfelty (1990).
For `CCOP(=S)(OCC)Oc1ccc([N+](=O)[O-])cc1` [parathion], the “Henry solubility constant Hcp” value turned out to be 120.
As for `c1cc2c3c(cccc3c1)CC2` [acenaphthene], the figure is 0.16; as for `c1ccc2ccccc2c1` [naphthalene], 0.013; as for `CCC(CC)Nc1c([N+](=O)[O-])cc(C)c(C)c1[N+](=O)[O-]` [penoxaline], 12.
As for `Cc1ccc2ccccc2c1` [2-methylnaphthalene], the figure is 0.031; as for `c1ccc(-c2ccccc2)cc1` [biphenyl], 0.051; as for `c1ccc2cc3ccccc3cc2c1` [anthracene], 0.51.
For the molecule `c1ccc2c(c1)Cc1ccccc1-2` [2,3-benzindene], the “Henry solubility constant Hcp” value stood at 0.16.
`Clc1ccc(-c2ccc(Cl)cc2)cc1` [4,4'-dichlorobiphenyl]: the “Henry solubility constant Hcp” value worked out at 0.1.
As for `CCOP(=S)(OCC)Oc1nc(Cl)c(Cl)cc1Cl` [chlorpyrifos], the figure is 2.4.
As for `c1ccc2c(c1)ccc1ccccc12` [phenanthrene], the figure is 0.42; as for `Clc1ccccc1-c1ccccc1Cl` [2,2'-dichlorobiphenyl], 0.04.
Then `Cc1cccc2ccccc12` [1-methylnaphthalene], with 0.016; and `COP(=S)(OC)Oc1ccc([N+](=O)[O-])cc1` [methylparathion], with 160; and `CCOC(=O)CC(SP(=S)(OC)OC)C(=O)OCC` (stereo unspecified) [malathion], with 2000.
For `C1=Cc2cccc3cccc1c23` [acenaphthylene], the “Henry solubility constant Hcp” value worked out at 0.088.
